Assay [1] concerns the target T1, GlyT2 Y550L mutant (Homo sapiens, UniProt Q9Y345, Y550L).
T1 construct: expressed in transfected cells; host or cells: Xenopus laevis oocytes (cRNA injection)
T1 sequence (Q9Y345 1-797 Y550L): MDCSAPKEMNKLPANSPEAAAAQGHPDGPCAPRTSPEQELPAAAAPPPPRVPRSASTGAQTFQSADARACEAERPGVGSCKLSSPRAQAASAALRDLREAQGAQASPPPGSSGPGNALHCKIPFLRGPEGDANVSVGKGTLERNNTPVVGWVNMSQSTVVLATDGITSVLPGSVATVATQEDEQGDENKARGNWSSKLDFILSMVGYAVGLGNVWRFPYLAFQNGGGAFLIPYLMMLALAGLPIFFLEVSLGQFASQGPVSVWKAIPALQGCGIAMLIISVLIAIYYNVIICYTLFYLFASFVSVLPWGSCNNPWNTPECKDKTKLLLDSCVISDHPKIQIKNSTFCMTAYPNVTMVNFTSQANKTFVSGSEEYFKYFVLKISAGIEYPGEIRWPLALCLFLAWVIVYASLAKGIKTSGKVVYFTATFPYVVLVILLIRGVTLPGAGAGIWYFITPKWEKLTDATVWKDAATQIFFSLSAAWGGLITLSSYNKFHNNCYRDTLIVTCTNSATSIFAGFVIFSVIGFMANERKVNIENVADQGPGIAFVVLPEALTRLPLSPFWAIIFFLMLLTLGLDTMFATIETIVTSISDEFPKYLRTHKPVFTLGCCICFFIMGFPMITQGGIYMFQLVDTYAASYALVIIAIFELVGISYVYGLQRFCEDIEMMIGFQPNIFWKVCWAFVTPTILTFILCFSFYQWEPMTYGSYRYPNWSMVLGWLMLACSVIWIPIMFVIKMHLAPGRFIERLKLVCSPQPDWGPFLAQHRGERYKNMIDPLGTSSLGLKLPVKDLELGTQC
The experiment in a line: Glycine transport currents, two electrode voltage clamp, oocytes expressing GlyT2 Y550L. Format: cell-based. The settings on record: for % Max. inhibition: mean ± SEM. As for the experimental part:
(§1) Glycine was first applied to establish maximal transport current.
(§2) Compounds were tested for inhibition of glycine transport on Xenopus laevis oocytes expressing mutant GlyT1 and GlyT2 transporters. n values are in brackets, with measurements taken from at least 2 batches of oocytes.

Assay [2] concerns the target T2, GlyT2 W563L mutant (Homo sapiens, UniProt Q9Y345, W563L).
T2 construct: expressed in transfected cells; host or cells: Xenopus laevis oocytes (cRNA injection)
T2 sequence (Q9Y345 1-797 W563L): T1 sequence (Q9Y345 1-797 Y550L) with L550Y, W563L
The experiment in a line: Glycine transport currents, two electrode voltage clamp, oocytes expressing GlyT2 W563L. The settings on record: for % Max. inhibition: mean ± SEM. The format is cell-based. As for the experimental part: as §1, §2

Assay [3] relates to GlyT1 WT. Details: method as in earlier work. The settings on record: previously published; cited from earlier work.
The target of assay [4] is T3, GlyT2 I545L mutant (Homo sapiens, UniProt Q9Y345, I545L).
T3 construct: expressed in transfected cells; host or cells: Xenopus laevis oocytes (cRNA injection)
T3 sequence (Q9Y345 1-797 I545L): T1 sequence (Q9Y345 1-797 Y550L) with I545L, L550Y
The experiment in a line: Glycine transport currents, two electrode voltage clamp, Xenopus laevis oocytes expressing GlyT2 I545L. The format is cell-based. The settings on record: for % Max. inhibition: mean ± SEM. The protocol: as §1, §2
(Two-electrode voltage clamp holds a large cell at a set potential and records current.)

Where [5] appears, read: GlyT2 Y550L, greater than maximum concentration applied (footnote a).
[6] abbreviates: GlyT2 W563L, greater than maximum concentration applied (footnote a).
Where [7] appears, read: GlyT2 I545L, greater than maximum concentration applied (footnote a).

Results on nine compounds are retold here after paper PMC6797481, “Identification of an allosteric binding site on the human glycine transporter, GlyT2, for bioactive lipid analgesics” (eLife, 2019).

Substitutions are numbered along the chain they refer to.

In general, EC50 refers to the concentration that produces a half-maximal response. A lower EC50 goes with an effect from little substance. As usually defined, the IC50 is the midpoint of a concentration-inhibition curve.

For the compound `NCC(=O)O` [Glycine], the EC50 was determined as 62200 ± 11400 nM in assay [1] (glycine transport, GlyT2 Y550L (EL4)) and 4900 ± 800 nM in assay [2] (glycine transport, GlyT2 W563L (TM8)).
Take `CCCCC/C=C\C/C=C\C/C=C\C/C=C\CCCC(=O)NCC(=O)O` [N-arachidonyl Glycine, reference compound]: the IC50 in assay [3] was over 10000 nM.
Turning to `CCCCCCCC/C=C\CCCCCCCC(=O)NCC(=O)O` [N-oleoyl Glycine, reference compound], the IC50 in assay [1] (GlyT2 Y550L, mean (95% CI)) was 829 nM; in assay [3] it was over 10000 nM; in assay [2] (GlyT2 W563L, mean (95% CI)) it was 755 nM. The “% Max. inhibition” value in assay [1] (GlyT2 Y550L) is recorded as 34.8 ± 9.1 (p=0.0011) %; in assay [2] (GlyT2 W563L), 46.6 ± 4.0 (p=0.0449) %.
`CCCCCCCC/C=C\CCCCCCCC(=O)O[C@H](CC(=O)[O-])C[N+](C)(C)C` [oleoyl L-Carnitine, reference compound]: the values for the IC50 in assay [1] (setting [5]), in assay [3] and in assay [2] (setting [6]) were over 3000 nM, over 10000 nM and over 3000 nM, respectively. The “% Max. inhibition” value was 17.3 ± 1.4 (p=0.0001) % in assay [1] (GlyT2 Y550L) and 34.7 ± 3.2 (p=0.0001) % in assay [2] (GlyT2 W563L).
For the compound `CCCCCCCC/C=C\CCCCCCCC(=O)N[C@@H](CC(=O)O)C(=O)O` [oleoyl l-Aspartate], the IC50 is over 10000 nM in assay [4] (setting [7]); over 3000 nM in assay [1] (setting [5]); over 10000 nM in assay [3]; 1160 nM in assay [2] (GlyT2 W563L, mean (95% CI)). In addition, the “% Max. inhibition” value in assay [4] (GlyT2 I545L) was 4.9 ± 6.4 (p=0.0001) %; in assay [2] (GlyT2 W563L) it was 74.9 ± 7.5 (p=0.9965) %. For the same compound, in assay [1] (GlyT2 Y550L, footnote b), the “% Max. inhibition (% inhibition at the highest concentration of inhibitor used)” value was 7.0 ± 0.8^b (p=0.0001) %.
Turning to `CCCCCCCC/C=C\CCCCCCCC(=O)N[C@@H](CCCCN)C(=O)O` [oleoyl l-Lysine], the “fold lower potency at I545L” value in assay [4] (GlyT2 I545L compared with WT GlyT2) is ~ 17 fold. Further, the IC50 in assay [4] (GlyT2 I545L, mean (95% CI)) was 443 nM; in assay [1] (GlyT2 Y550L, mean (95% CI)), 210 nM; in assay [3], over 3000 nM; in assay [2] (GlyT2 W563L, mean (95% CI)), 175 nM. In addition, the “% Max. inhibition” value in assay [4] (GlyT2 I545L) was 80.7%; in assay [1] (GlyT2 Y550L), 48.2 ± 4.1 (p=0.0001) %; in assay [2] (GlyT2 W563L) it was 73.5 ± 3.3 (p=0.1479) %.
Regarding `CCCCCCCC/C=C\CCCCCCCC(=O)N[C@@H](Cc1c[nH]c2ccccc12)C(=O)O` [oleoyl l-Tryptophan], the IC50 in assay [4] (setting [7]) is over 10000 nM; in assay [1] (setting [5]), over 3000 nM; in assay [3], over 10000 nM; in assay [2] (setting [6]), over 3000 nM. The “% Max. inhibition” value in assay [4] (GlyT2 I545L) was 20.2 ± 1.7 (p=0.0001) %; in assay [1] (GlyT2 Y550L), 16.5 ± 1.7 (p=0.0001) %; in assay [2] (GlyT2 W563L) it was 42.9 ± 2.6 (p=0.0001) %.
Consider `CCCCCCCC/C=C\CCCCCCCC(=O)N[C@H](C(=O)O)C(C)C` [oleoyl l-Valine], for which the “% Max. inhibition (% inhibition at the highest concentration of inhibitor used)” value in assay [4] (GlyT2 I545L, footnote b) is on record as 22.5 ± 8.0^b (p=0.0001) %; in assay [2] (GlyT2 W563L, footnote b) it was 56.3 ± 9.1^b (p=0.5737) %. Besides, the IC50 in assay [4] (setting [7]) was over 10000 nM; in assay [1] (GlyT2 Y550L, mean (95% CI)) it was 2930 nM; in assay [3], over 30000 nM; in assay [2] (GlyT2 W563L, mean (95% CI)) it was 7510 nM. For the same compound, the “% Max. inhibition” value in assay [1] (GlyT2 Y550L) is 57.0 ± 5.1 (p=0.0028) %.
Regarding oleoyl d-Lysine, the IC50 in assay [1] (setting [5]), in assay [3] and in assay [2] (setting [6]) was over 3000 nM throughout. Besides, the results for the “% Max. inhibition” value in assay [1] (GlyT2 Y550L) and in assay [2] (GlyT2 W563L) were 38.4 ± 10.0 (p=0.0010) % and 42.1 ± 7.7 (p=0.0017) %, respectively.
